From patent publication US20220280594A1, “APPLICATION OF POLYPEPTIDE OR DERIVATIVE THEREOF” (CHENGDU HUITAI BIOMEDICINE CO., LTD., priority 2019, published 2022)
Ends that are not written are not given here. PEG = not defined here

Experiments:
Type in all cases: cell-based
[1] = test system: human non-small cell lung cancer cells (A549); test: scratch assay, migration of A549 cells; details: A549, 10 μM, 48 hours; control group 75.31 ± 8.19
Procedure: (§1) In the scratch assay, the cell migration rate was negatively correlated with the inhibitory effect of the drug component on tumor cell migration ability. The cell migration inhibition experiment was described as follows: tumor cells were cultured in vitro, cells in logarithmic growth phase were collected and seeded evenly in a 24-well plate at a density of 1-2×10^5 cells/well; the cells were cultured in a cell incubator until a monolayer was formed; a scratch tool was used to make a “-” (straight) scratch on the monolayer of cells; the cells were washed 1-3 times with PBS, and a medium (with 2% fetal bovine serum) containing specific test components was added to the culture. Experimental grouping: PBS control group; polypeptide or derivative thereof treatment group (N1-N54), 10 μM. Three independent parallel wells were set up in each group, and the cells were cultured continuously in a cell incubator for 48 hours. […] At least 3 representative images for each well were taken. ImageJ software was used to count the migration distance of the cells, and the cell migration rate was calculated as: cell migration rate (%)=(width of original scratch−width of current scratch)/width of original scratch×100.
This example was a scratch assay to evaluate the inhibitory effect of the polypeptide or derivative thereof (N1-N54) on the migration ability of human non-small cell lung cancer (A549). The experimental method was as described in Example 2.

[2] = test system: human breast cancer cells (MCF-7); test: scratch assay, migration of MCF-7 cells; details: MCF-7, 10 μM, 48 hours; control group 30.97 ± 1.79
Procedure: as §1
This example was a scratch assay to evaluate the inhibitory effect of the polypeptide or derivative thereof (N1-N54) on the migration ability of human breast cancer cells (MCF-7). The experimental method was as described in Example 2.

[3] = test system: human pancreatic cancer cells (PANC-1); test: transwell invasion assay, PANC-1 cells; details: PANC-1 transwell invasion, 10 μM, 24 hours; control group 727 ± 68
Source text: (§2) The Transwell chamber system was used in the transwell cell invasion experiment. The chamber has an upper layer and a lower layer, which are separated by an artificial semipermeable membrane in the middle. The upper surface of the semipermeable membrane is coated with a layer of artificial matrigel to simulate extracellular matrix. Cells that have invaded through the matrigel and semi-permeable membrane will attach to the lower surface of the semi-permeable membrane. The invasion ability is evaluated by counting the number of cells on the lower surface of the semi-permeable membrane. The number of cells that have invaded is negatively correlated with the inhibitory effect of the drug on the invasion ability of the tumor cells. Transwell invasion assay was performed as follows: tumor cells were cultured in vitro, cells in logarithmic growth phase were collected, and cell suspension was prepared with fresh serum-free medium at a density of 2-3×10^5 cells/mL. Cells were inoculated, 100 μL/well cell suspension (serum-free medium) in the upper chamber and 600 μL/well complete culture medium in the lower chamber. After incubated in 37° C., 5% CO2 incubator for 4-5 hours, serum-free medium (100 μL/well) was added to the control group, and serum-free medium containing polypeptide or derivative thereof (N1-N54) was added to the upper chamber of the treatment group (100 μL/well), the final concentration of the peptide or derivative thereof in the upper chamber was 10 μM. The cells were incubated continuously for 24 hours, and then fixed with methanol and stained with crystal violet. Images were taken under a microscope and the number of invaded cells was counted with ImageJ.
This example was the transwell cell invasion experiment to evaluate the inhibitory effect of the polypeptide or derivative thereof (N1-N54) on the invasion ability of human pancreatic cancer cells (PANC-1). The experimental method was as described in Example 4.

[4] = test system: human pancreatic cancer cells (PANC-1); test: transwell migration assay, PANC-1 cells; details: PANC-1 transwell migration, 10 μM, 24 hours; control group 360 ± 60
Procedure: as §2, with “migration” for “invasion”, “middle.” for “middle. The upper surface of the semipermeable membrane is coated with a layer of artificial matrigel to simulate extracellular matrix.”, “migrated” for “invaded”, “the” for “the matrigel and”
This example was a transwell cell migration experiment to evaluate the inhibitory effect of the polypeptide or derivative thereof (N1-N54) on the migration ability of human pancreatic cancer cells (PANC-1). The experimental method was as described in Example 3.

[5] = test system: human colon cancer cells (HCT-116); test: scratch assay, migration of HCT-116 cells; details: HCT-116, 10 μM, 48 hours; control group 47.78 ± 6.07
Procedure: as §1
This example was a scratch assay to evaluate the inhibitory effect of the polypeptide or derivative thereof (N1-N54) on the migration ability of human colon cancer cells (HCT-116). The experimental method was as described in Example 2.

[6] = test system: human liver cancer cells (HepG2); test: scratch assay, migration of HepG2 cells; details: HepG2, 10 μM, 48 hours; control group 71.01 ± 6.63
Procedure: as §1
This example was a scratch assay to evaluate the inhibitory effect of the polypeptide or derivative thereof (N1-N54) on the migration ability of human liver cancer cells (HepG2). The experimental method was as described in Example 2.

[7] = test system: human breast cancer cells (MDA-MB-231); test: scratch assay, migration of MDA-MB-231 cells; details: MDA-MB-231, 10 μM, 48 hours; control group 36.19 ± 5.15
Procedure: as §1
This example was a scratch assay to evaluate the inhibitory effect of the polypeptide or derivative thereof (N1-N54) on the migration ability of human breast cancer cells (MDA-MB-231). The experimental method was as described in Example 2.

[8] = test system: human pancreatic cancer cells (PANC-1); test: scratch assay, migration of PANC-1 cells; details: PANC-1, 10 μM, 48 hours; control group 66.65 ± 3.37
Procedure: as §1
This example was a scratch assay to evaluate the inhibitory effect of the polypeptide or derivative thereof (N1-N54) on the migration ability of human pancreatic cancer cells (PANC-1). The experimental method was as described in Example 2.

Substance	Migration rate (%) (mean ± SD, P) [1]	Migration rate (%) (mean ± SD, P) [2]	Number of cells (mean ± SD, P), invaded cells [3]	Number of cells (mean ± SD, P), migrated cells [4]	Migration rate (%) (mean ± SD, P) [5]	Migration rate (%) (mean ± SD, P) [6]	Migration rate (%) (mean ± SD, P) [7]	Migration rate (%) (mean ± SD, P) [8]
N1: polypeptide with the amino acid sequence set forth in SEQ ID NO: 1 (YRVRFLAKENVTQDAEDN)	18.26 ± 8.77,** %	11.18 ± 2.89,** %	83 ± 26,****	245 ± 27,*	10.27 ± 3.64,*** %	17.42 ± 7.70,*** %	21.83 ± 3.73,* %	18.89 ± 6.68,*** %
N2: SEQ ID NO: 1 with deletion of one amino acid (position 18) at the carboxyl terminal (YRVRFLAKENVTQDAED)	47.79 ± 3.12,** %	12.32 ± 2.26,** %	93 ± 19,****	221 ± 35,**	23.42 ± 6.12,** %	13.05 ± 6.50,*** %	20.92 ± 2.16,* %	32.74 ± 4.26,** %
N3: SEQ ID NO: 1 with deletion of position 18 and PEG modification at the amino terminal ({PEG}-YRVRFLAKENVTQDAED; reading uncertain)	51.86 ± 2.15,** %	10.39 ± 2.07,** %	111 ± 10,****	224 ± 28,**	22.06 ± 4.59,** %	17.57 ± 6.98,*** %	21.98 ± 2.74,* %	29.67 ± 5.64,*** %
N4: SEQ ID NO: 1 with deletion of positions 15-18 and positions 1-3 (RFLAKENVTQD)	51.53 ± 3.72,* %	13.6 ± 2.28,** %	37 ± 4,****	268 ± 20,*	25.48 ± 2.79,** %	25.37 ± 6.11,*** %	21.44 ± 2.59,* %	19.04 ± 8.54,*** %
N5: SEQ ID NO: 1 with addition of one amino acid at the carboxyl terminal and deletion of positions 1-3 (RFLAKENVTQDAEDNC)	46.66 ± 5.92,** %	14.50 ± 2.66,** %	109 ± 7,****	234 ± 27,*	12.75 ± 2.82,*** %	19.84 ± 5.04,*** %	22.13 ± 3.22,* %	21.63 ± 6.16,*** %
N6: SEQ ID NO: 1 with deletion of four amino acids at the carboxyl terminal (positions 15-18) (YRVRFLAKENVTQD)	40.67 ± 3.66,** %	15.69 ± 4.09,* %	110 ± 5,****	144 ± 12,***	18.13 ± 2.68,** %	16.65 ± 6.70,*** %	17.42 ± 4.98,* %	36.66 ± 5.57,** %
N7: SEQ ID NO: 1 with addition of one amino acid at the carboxyl terminal and substitution A15R (YRVRFLAKENVTQDREDNC)	48.64 ± 3.10,** %	12.59 ± 3.23,** %	70 ± 17,****	132 ± 15,***	20.09 ± 2.41,** %	11.54 ± 9.00,*** %	21.04 ± 2.46,* %	37.07 ± 7.83,** %
N8: SEQ ID NO: 1 with deletion of positions 15-18 and positions 3, 4 and 11 (YRFLAKENTQD)	32.62 ± 5.83,** %	11.56 ± 2.35,** %	65 ± 16,****	133 ± 20,***	16.96 ± 3.87,** %	18.65 ± 6.88,*** %	19.02 ± 3.53,* %	35.11 ± 5.96,** %
